Laboratory results: US11090324B2, “Composition, for remedying female climacteric syndrome symptoms, comprising tectorigenin 7-O-Xylosylglucoside” (LG Household & Health Care Ltd., priority 2017, dated 2021)
One block for each compound: values may come before it.

Legend:
[1] = tested on: ovariectomy (OVX) female Sprague-Dawley rats; test: Serum CTX level (bone resorption marker) in ovariectomized rats, ELISA; assay type: in vivo, rat; details: for CTX: serum, 8 weeks, sham 42.3, OVX control 78.2
Procedure: 11-12 week-old female Sprague-Dawley rats were subjected to sham operation (group 1, n=10) or ovariectomy (OVX) (groups 2-8, n=10 per each group). After a week from the operation, 0.01 mL of a sample per body weight (g) of each rat was administered orally every day for 4 weeks. 17β-Estradiol (E2) was administered to the positive control group and a 1:5:5 mixture of the three compounds tectorigenin, tectoridin and tectorigenin 7-O-xylosylglucoside was administered to the test groups. 4 weeks after the administration, the skin temperature at 2 cm where the tail starts was measured using an infrared thermometer. [table] In order to measure CTX (C-terminal telopeptide of type I collagen), which is a marker related with bone resorption, the same rats as in Example 2 were orally administered with a sample for 8 weeks and then serum was collected. The CTX level in the serum was measured using the rat C-telopeptide of type I collagen ELISA kit (MyBioSource) according to the manufacturer's instructions.

[2] = tested on: ovariectomy (OVX) female Sprague-Dawley rats; test: Tail skin temperature of ovariectomized rats (vasomotor symptoms); assay type: in vivo, rat; details: oral 4 weeks, mixture 5 and 10 mg/kg/day, single compounds 10 mg/kg/day
Description: It is known that 75% of […] women experience vasomotor symptoms. Facial flushing (hot flush) is the representative symptom where the skin on face, neck and chest is reddened abruptly, accompanied by unpleasant flushing and sweating. The change in the vasomotor symptoms can be evaluated by measuring the change in skin temperature. In an animal experiment, it can be measure by the skin temperature of the rat tail (Guidelines for evaluation of health functional food, ‘Helpful for health of […] women’, National Institute of Food and Drug Safety Evaluation). 11-12 week-old female Sprague-Dawley rats were subjected to sham operation (group 1, n=10) or ovariectomy (OVX) (groups 2-8, n=10 per each group). After a week from the operation, 0.01 mL of a sample per body weight (g) of each rat was administered orally every day for 4 weeks. 17β-Estradiol (E2) was administered to the positive control group and a 1:5:5 mixture of the three compounds tectorigenin, tectoridin and tectorigenin 7-O-xylosylglucoside was administered to the test groups. 4 weeks after the administration, the skin temperature at 2 cm where the tail starts was measured using an infrared thermometer. [table]

estrogen receptors = test: ERE (estrogen response element) reporter assay; assay type: cell-based; details: sum of the concentrations of the three compounds 10 ppm; with respect to negative control group (1.0)
Procedure: ERE (estrogen response element) reporter assay was performed to investigate the activity of the three compounds tectorigenin 7-O-xylosylglucoside, tectorigenin and tectoridin for estrogen receptors. Tectorigenin, tectoridin and tectorigenin 7-O-xylosylglucoside were treated at ratios described in Table 1 (the sum of the concentrations of the three compounds was 10 ppm).

Structure (SMILES): C[C@]12CC[C@@H]3c4ccc(O)cc4CC[C@H]3[C@@H]1CC[C@@H]2O [17β-estradiol (E2), 17β-Estradiol, reference compound]
CTX ([1]; 0.5 mg/kg/day oral): 52.6 ng/mL

Structure (SMILES): COc1c(O[C@@H]2O[C@H](CO)[C@@H](O)[C@H](O)[C@H]2O)cc2occ(-c3ccc(O)cc3)c(=O)c2c1O [Tectoridin, tectoridin]
CTX ([1]; 10 mg/kg/day oral): 70.4 ng/mL

Activity for estrogen receptors Fold induction (estrogen receptors): 34 fold
Structure (SMILES): COc1c(O[C@@H]2O[C@H](CO[C@@H]3OC[C@@H](O)[C@H](O)[C@H]3O)[C@@H](O)[C@H](O)[C@H]2O)cc2occ(-c3ccc(O)cc3)c(=O)c2c1O [Tectorigenin 7-O-xylosylglucoside, tectorigenin 7-O-xylosylglucoside]
Effect on CTX level / bone resorption (in words) ([1]; oral 8 weeks, compared to the OVX group or to tectorigenin and tectoridin): most inhibited bone resorption
CTX ([1]; 10 mg/kg/day oral): 58.4 ng/mL
Effect on increase in tail temperature caused by estrogen deficiency (in words) [2]: best effect of suppressing increase in the tail temperature

Structure (SMILES): COc1c(O)cc2occ(-c3ccc(O)cc3)c(=O)c2c1O [Tectorigenin, tectorigenin]
CTX ([1]; 10 mg/kg/day oral): 71.5 ng/mL
